Test results published in patent publication US12421216B2, “Voruciclib polymorphs and methods of making and using thereof” (MEI PHARMA, INC., priority 2019, dated 2025).
“Also recorded” adds a separate entry of the source. Where a name gives a salt, the structure may show the parent alone. Read-outs that look alike come from different tables or passages of the source.

How the values were obtained:
[1] = acid counterion; cited from earlier work
[2] = Physical stability upon exposure to accelerated aging conditions (AAC, 40° C./75% RH), re-analysis by HT-XRPD; format: physicochemical
[3] = Physical stability of solid forms upon drying under vacuum, HT-XRPD; format: physicochemical; conditions: for Solid forms Vacuum: form after drying under deep vacuum (5 mbar, 18 h), HT-XRPD, label = ambient-dried form
Experimental: (§1) Amorphous voruciclib oxalate salt, generated by freeze-drying, was used to start the thermocycling experiments. Suspensions were prepared in the selected solvent systems at RT. Subsequently, the mixtures were subjected to a temperature profile. After the temperature profile, the solids were separated from the solutions by centrifugation and were dried at ambient conditions and under deep vacuum before being harvested and analyzed by HT-XRPD. The liquid phases were also dried under deep vacuum before being harvested and analyzed by HT-XRPD. All solids were exposed to AAC (40° C./75% RH, 2 days).
(§2) After the temperature profile, the solids were separated from the liquids by centrifugation and the solid phase was dried at ambient conditions and under deep vacuum (5 mbar) before being harvested and analyzed by HT-XRPD. The liquid phases were dried under deep vacuum (5 mbar) and the recovered solids were analyzed by HT-XRPD. All solids were then exposed to accelerated aging conditions (40° C./75% RH, 2 days) followed by HT-XRPD re-analysis.
as §1, with “voruciclib phosphate” for “voruciclib oxalate”, “profile. Upon completion of” for “profile. After”, “dried under” for “dried at”
as §2, with “dried under” for “dried at”, “(5 mbar, 18 h)” for “(5 mbar)”
Amorphous voruciclib malonate salt, generated by freeze-drying, was used to start the thermocycling experiments. Suspensions were prepared in the selected solvent systems at RT and were subjected to three thermocycles between 50 and 5° C., followed by aging at 25° C. for 3 days. Upon completion of the aging time, the solids were separated from the liquids by centrifugation and they were dried at ambient conditions and under deep vacuum (5 mbar) before being harvested and analyzed by HT-XRPD.
After the temperature profile the solids were separated from the solution by centrifugation and they were dried at ambient conditions and under deep vacuum before being harvested and analyzed by HT-XRPD.

[4] = Thermodynamic solubility of voruciclib HCl by the shake-flask method (HPLC); format: physicochemical; conditions: RT; for Solubility classification: USP29
[5] = Solubility of salts in water and in 0.2 M phosphate buffer pH 6 at 37° C. after 4 hours (HPLC-DAD); format: physicochemical; conditions: 37° C., 4 hours, listed as Voruciclib HCl salt
Experimental: Two sets of solubility experiments were performed. […] In the second set of solubility experiments about 5 mg of the salt was weighed in a standard 1.8 mL HPLC vial. Subsequently, aliquots of 200 μL of aqueous medium were added up to a maximum of 1 mL, while making observations regarding the dissolution behavior of the salts. The vials were left to equilibrate at 37° C. with continuous stirring (see Table 25 for details). After 4 hours the solids were separated from the liquid by centrifugation and the liquid phase was further filtrated through a […] PTFE filter to remove any particulate matter. The concentration of solute was determined by HPLC-DAD analysis. A calibration curve was made from two independent stock solutions of voruciclib prepared in acetonitrile/water. The pH was recorded at the end of the equilibration time.

O=C(O)C[C@H](O)C(=O)O [(−)-L-Malic]
pka1 [1]: 3.5 | pka2 [1]: 5.1

O=C(O)[C@H](O)[C@@H](O)[C@H](O)[C@H](O)CO [D-Gluconic]
pka1 [1]: 3.8

O=C(O[C@@H](C(=O)O)[C@@H](OC(=O)c1ccccc1)C(=O)O)c1ccccc1 [Dibenzoyl-L-tartaric]
pka1 [1]: 1.9

O=S(=O)(O)CCS(=O)(=O)O [Ethane-1,2-disulfonic]
pka1 [1]: −2.1 | pka2 [1]: −1.5

CCS(=O)(=O)O [Ethanesulfonic]
pka1 [1]: 2.1

O=C(O)CCCC(=O)O [Glutaric]
pka1 [1]: 4.3 | pka2 [1]: 5.3

O=S(=O)(O)c1cccc2c(S(=O)(=O)O)cccc12 [Naphthalene-1,5-disulfonic]
pka1 [1]: −3.4 | pka2 [1]: −2.6

O=S(=O)(O)c1ccc2ccccc2c1 [Naphthalene-2-sulfonic]
pka1 [1]: 0.2

CN1CCC(c2c(O)cc(O)c3c(=O)cc(-c4ccc(C(F)(F)F)cc4Cl)oc23)C1CO.O=C(O)C(=O)O (stereo not shown) [Oxa2 + peaks]
Solid forms Ambient AAC ([2]; oxalate salt thermocycling, ambient-dried solids after AAC (40° C./75% RH, 2 days), HT-XRPD): Oxa2 + peaks | Solid forms Vacuum AAC ([2]; oxalate salt thermocycling, vacuum-dried solids after AAC (40° C./75% RH, 2 days), HT-XRPD): Oxa2 + peaks | Solid forms Vacuum ([3]; oxalate salt thermocycling solids): Oxa2 + peaks

CN1CCC(c2c(O)cc(O)c3c(=O)cc(-c4ccc(C(F)(F)F)cc4Cl)oc23)C1CO.O=P(O)(O)O (stereo not shown) [Pho7]
Physical stability upon exposure to AAC ([2]; 40° C./75% RH, 2 days, HT-XRPD before and after): additional diffraction peaks were observed; also recorded: unstable upon exposure to AAC | Physical stability upon drying under deep/high vacuum ([3]; oxalate, phosphate, malonate forms, 5 mbar, 18 h): remained physically stable | Solid forms Vacuum ([3]; phosphate salt thermocycling solids): Pho7

CN1CC[C@@H](c2c(O)cc(O)c3c(=O)cc(-c4ccc(C(F)(F)F)cc4Cl)oc23)[C@@H]1CO [voruciclib HCl]
solubility at 24 h ([4]; 1,2-dimethoxyethane, organic solvent or mixture, thermodynamic from solid, 1,2-Dimethoxyethane, 24 h, amorphous API, HPLC, read-out: Solubility): 1600 µg/mL | solubility at 24 h ([4]; 1,4-dioxane, organic solvent or mixture, thermodynamic from solid, 1,4-Dioxane, 24 h, amorphous API, HPLC, read-out: Solubility): 400 µg/mL | solubility ([4]; 1-Propanol, 24 h, amorphous API, HPLC): 34.5 mg/mL | solubility at 24 h ([4]; 1-propanol, organic solvent or mixture, thermodynamic from solid, 1-Propanol, 24 h, amorphous API, HPLC, read-out: Solubility): 34000 µg/mL | solubility ([4]; 2-Butanol, 24 h, amorphous API, HPLC): 10.2 mg/mL | solubility ([4]; 2-Propanol, 24 h, amorphous API, HPLC): 18.8 mg/mL | solubility at 24 h ([4]; 2-butanol, organic solvent or mixture, thermodynamic from solid, 2-Butanol, 24 h, amorphous API, HPLC, read-out: Solubility): 10000 µg/mL | solubility at 24 h ([4]; 2-methyltetrahydrofuran, organic solvent or mixture, thermodynamic from solid, 2-Methyltetrahydrofuran, 24 h, amorphous API, HPLC, read-out: Solubility): 1600 µg/mL | solubility at 24 h ([4]; 2-propanol, organic solvent or mixture, thermodynamic from solid, 2-Propanol, 24 h, amorphous API, HPLC, read-out: Solubility): 19000 µg/mL | solubility ([4]; Dimethyl sulfoxide, amorphous API, no suspension obtained, concentration of the solution after first aliquot): >400 mg/mL | solubility ([4]; Ethanol, 24 h, amorphous API, HPLC): 62.0 mg/mL | solubility ([4]; Methanol, 24 h, amorphous API, HPLC): 229.5 mg/mL | solubility ([4]; N,N-Dimethylacetamide, amorphous API, no suspension obtained, concentration of the solution after first aliquot): >400 mg/mL | solubility ([4]; N,N-Dimethylformamide, amorphous API, no suspension obtained, concentration of the solution after first aliquot): >400 mg/mL | solubility ([4]; N,N-dimethylacetamide, organic solvent or mixture, thermodynamic from solid, N,N-Dimethylacetamide, amorphous API, no suspension obtained, concentration of the solution after first aliquot, read-out: Solubility): > 400 mg/mL | solubility ([4]; N,N-dimethylformamide, organic solvent or mixture, thermodynamic from solid, N,N-Dimethylformamide, amorphous API, no suspension obtained, concentration of the solution after first aliquot, read-out: Solubility): > 400 mg/mL | Solubility classification ([4]; 2-Propanol, 2-Butanol): Sparingly soluble | Solubility classification ([4]; Acetonitrile, Ethyl acetate, Methyl isobutyl ketone, Dichloromethane, Isopropyl acetate, 1,4-Dioxane, Diethyl ether, tert-Butyl methyl ether, Toluene): Very slightly soluble | Solubility classification ([4]; Anisole, p-Xylene, Diisopropyl ether, Cumene, Cyclohexane, n-Hexane, n-Heptane, Hexanes): Practically insoluble | Solubility classification ([4]; Ethanol, 1-Propanol): Soluble | Solubility classification ([4]; N,N-Dimethylacetamide, Dimethyl sulfoxide, N,N-Dimethylformamide, Methanol): Freely soluble | Solubility classification ([4]; Tetrahydrofuran, Acetone, Chloroform, 1,2-Dimethoxyethane, 2-Methyltetrahydrofuran, Ethyl formate, Methyl ethyl ketone): Slightly soluble | solubility at 24 h ([4]; acetone, organic solvent or mixture, thermodynamic from solid, Acetone, 24 h, amorphous API, HPLC, read-out: Solubility): 3500 µg/mL | solubility at 24 h ([4]; acetonitrile, organic solvent or mixture, thermodynamic from solid, Acetonitrile, 24 h, amorphous API, HPLC, read-out: Solubility): 900 µg/mL | solubility at 24 h ([4]; anisole, organic solvent or mixture, thermodynamic from solid, Anisole, 24 h, amorphous API, HPLC, read-out: Solubility): < 100 µg/mL | solubility at 24 h ([4]; chloroform, organic solvent or mixture, thermodynamic from solid, Chloroform, 24 h, amorphous API, HPLC, read-out: Solubility): 3100 µg/mL | solubility at 24 h ([4]; cumene, organic solvent or mixture, thermodynamic from solid, Cumene, 24 h, amorphous API, HPLC, read-out: Solubility): < 100 µg/mL | solubility at 24 h ([4]; cyclohexane, organic solvent or mixture, thermodynamic from solid, Cyclohexane, 24 h, amorphous API, HPLC, read-out: Solubility): < 100 µg/mL | solubility at 24 h ([4]; dichloromethane, organic solvent or mixture, thermodynamic from solid, Dichloromethane, 24 h, amorphous API, HPLC, read-out: Solubility): 500 µg/mL | solubility at 24 h ([4]; diethyl ether, organic solvent or mixture, thermodynamic from solid, Diethyl ether, 24 h, amorphous API, HPLC, read-out: Solubility): 200 µg/mL | solubility at 24 h ([4]; diisopropyl ether, organic solvent or mixture, thermodynamic from solid, Diisopropyl ether, 24 h, amorphous API, HPLC, read-out: Solubility): < 100 µg/mL | solubility ([4]; dimethyl sulfoxide, organic solvent or mixture, thermodynamic from solid, Dimethyl sulfoxide, amorphous API, no suspension obtained, concentration of the solution after first aliquot, read-out: Solubility): > 400 mg/mL | solubility at 24 h ([4]; ethanol, organic solvent or mixture, thermodynamic from solid, Ethanol, 24 h, amorphous API, HPLC, read-out: Solubility): 62000 µg/mL | solubility at 24 h ([4]; ethyl acetate, organic solvent or mixture, thermodynamic from solid, Ethyl acetate, 24 h, amorphous API, HPLC, read-out: Solubility): 800 µg/mL | solubility at 24 h ([4]; ethyl formate, organic solvent or mixture, thermodynamic from solid, Ethyl formate, 24 h, amorphous API, HPLC, read-out: Solubility): 1600 µg/mL | solubility at 24 h ([4]; hexanes, organic solvent or mixture, thermodynamic from solid, Hexanes, 24 h, amorphous API, HPLC, read-out: Solubility): < 100 µg/mL | solubility at 24 h ([4]; isopropyl acetate, organic solvent or mixture, thermodynamic from solid, Isopropyl acetate, 24 h, amorphous API, HPLC, read-out: Solubility): 500 µg/mL | solubility at 24 h ([4]; methanol, organic solvent or mixture, thermodynamic from solid, Methanol, 24 h, amorphous API, HPLC, read-out: Solubility): 230000 µg/mL | solubility at 24 h ([4]; methyl ethyl ketone, organic solvent or mixture, thermodynamic from solid, Methyl ethyl ketone, 24 h, amorphous API, HPLC, read-out: Solubility): 1100 µg/mL | solubility at 24 h ([4]; methyl isobutyl ketone, organic solvent or mixture, thermodynamic from solid, Methyl isobutyl ketone, 24 h, amorphous API, HPLC, read-out: Solubility): 700 µg/mL | solubility at 24 h ([4]; n-heptane, organic solvent or mixture, thermodynamic from solid, n-Heptane, 24 h, amorphous API, HPLC, read-out: Solubility): < 100 µg/mL | solubility at 24 h ([4]; n-hexane, organic solvent or mixture, thermodynamic from solid, n-Hexane, 24 h, amorphous API, HPLC, read-out: Solubility): < 100 µg/mL | solubility at 24 h ([4]; p-xylene, organic solvent or mixture, thermodynamic from solid, p-Xylene, 24 h, amorphous API, HPLC, read-out: Solubility): < 100 µg/mL | solubility at 24 h ([4]; solvents other than DMA, DMF, DMSO and alcohols, organic solvent or mixture, thermodynamic from solid, solvents other than DMA, DMF, DMSO and alcohols, read-out: Solubility in all the other solvents): < 10000 µg/mL | solubility at 24 h ([4]; tert-butyl methyl ether, organic solvent or mixture, thermodynamic from solid, tert-Butyl methyl ether, 24 h, amorphous API, HPLC, read-out: Solubility): 100 µg/mL | solubility at 24 h ([4]; tetrahydrofuran, organic solvent or mixture, thermodynamic from solid, Tetrahydrofuran, 24 h, amorphous API, HPLC, read-out: Solubility): 9600 µg/mL | solubility at 24 h ([4]; toluene, organic solvent or mixture, thermodynamic from solid, Toluene, 24 h, amorphous API, HPLC, read-out: Solubility): 100 µg/mL | Solubility pH 6 ([5]; 0.2M phosphate buffer (pH 6)): 0.01 mg/mL | Solubility water ([5]; water): Gel
